Measured values published in patent US20170081286A1, “2-[[[2-[(HYDROXYACETYL)AMINO]-4-PYRIDINYL]METHYL]THIO]-N-[4-(TRIFLUOROMETHOXY)PHENYL]-3-PYRIDINECARBOXAMIDE BENZENESULFONATE, CRYSTAL OF SAME, CRYSTAL POLYMORPH THEREOF, AND METHODS FOR PRODUCTION THEREOF” (Santen Pharmaceutical Co., Ltd., priority 2009, published 2017).

What was measured:
[1] = test system: tumor-bearing mouse model; settings: described in PTL 1; cited from earlier work
[2] = test system: VEGF-induced HUVEC proliferation; settings: described in PTL 1; cited from earlier work
[3] = test system: rat choroidal neovascularization model; settings: described in PTL 1; cited from earlier work
Crl:CD (SD) rat [4] = assay: Rat 1-week repeated oral administration toxicity test of compound A (free body), stomach histopathology; type: in vivo; settings: once a day, 1 week (7 days), 30 mg/kg
Protocol: 1) Rat 1-week repeated oral administration toxicity test of compound A (free body)
(§1) i) To Crl:CD (SD) rat was orally administered compound A ([…]) suspended in a 1% methylcellulose liquid once a day for 7 days. ii) After completion of the administration, the rat was exsanguinated to death under ether anesthesia, then the stomach was removed, fixed in a 10% neutral buffered formalin aqueous solution, and then stained with hematoxylin-eosin to prepare a specimen, and the change in the stomach was observed histopathologically. 2) Rat 4-week repeated oral administration toxicity test of benzenesulfonate of compound A

[5] = test system: rat adjuvant arthritis model; settings: described in PTL 1; cited from earlier work
[6] = Storage stability test of salts of compound A (1-week preliminary stability test, content by HPLC); type: physicochemical; settings: for decomposition / decrease in purity on storage (in words): 1-week preliminary stability test (severe test), light, humidity and other factors; for content of salt of compound A after storage, relative to the content before storage of 100%: HPLC
Protocol: For examining the storage stability for these salts with compound A, a 1-week preliminary stability test (severe test) was executed.
<Storage Stability Tests for Benzenesulfonate, Methanesulfonate and p-Toluenesulfonate of Compound A (1-Week Preliminary Stability Test)>
For benzenesulfonate, methanesulfonate and p-toluenesulfonate of compound A, after storing under the conditions of 40° C. 75% RH, 60° C. or light (1000 lux/hr), the content of each salt of compound A was measured by HPLC. The percentage of change, relative to the content before storage of 100%, was calculated.

Crl:CD (SD) rat [7] = assay: Rat 4-week repeated oral administration toxicity test of benzenesulfonate of compound A, stomach histopathology; type: in vivo; settings: once a day, 4 weeks, 30 mg/kg
Protocol: as §1
as §1, with “administered benzenesulfonate of” for “administered”, “4 weeks.” for “7 days.”, “histopathologically.” for “histopathologically. 2) Rat 4-week repeated oral administration toxicity test of benzenesulfonate of compound A”

Molecule | tumor proliferation suppressing effect [1] | cell proliferation inhibiting effect [2] | choroidal neovascularization inhibiting effect [3] | mineral deposition in the stomach (Crl:CD (SD) rat [4]) | paw edema suppressing effect [5] | decomposition / decrease in purity on storage (in words) [6] | content of salt of compound A after storage, relative to the content before storage of 100% ([6]; 40° C. 75% RH/1 week) | content of salt of compound A after storage, relative to the content before storage of 100% ([6]; 60° C./1 week) | content of salt of compound A after storage, relative to the content before storage of 100% ([6]; 1000 lux/hr, 1 week) | mineral deposition in the stomach (Crl:CD (SD) rat [7])
O=C(CO)Nc1cc(CSc2ncccc2C(=O)Nc2ccc(OC(F)(F)F)cc2)ccn1 [compound A, 2-[[[2-[(hydroxyacetyl)amino]-4-pyridinyl]methyl]thio]-N-[4-(trifluoromethoxy)phenyl]-3-pyridinecarboxamide] | exhibits a tumor proliferation suppressing effect | exhibits a cell proliferation inhibiting effect | exhibits a choroidal neovascularization inhibiting effect | observed | exhibits a paw edema suppressing effect | – | – | – | – | –
O=C(CO)Nc1cc(CSc2ncccc2C(=O)Nc2ccc(OC(F)(F)F)cc2)ccn1.O=S(=O)(O)c1ccccc1 [benzenesulfonate of compound A, benzenesulfonate of 2-[[[2-[(hydroxyacetyl)amino]-4-pyridinyl]methyl]thio]-N-[4-(trifluoromethoxy)phenyl]-3-pyridinecarboxamide] | – | – | – | – | – | did not show a decrease in purity | 100.0% | 100.0% | 100.0% | not observed
CS(=O)(=O)O.O=C(CO)Nc1cc(CSc2ncccc2C(=O)Nc2ccc(OC(F)(F)F)cc2)ccn1 [methanesulfonate of compound A] | – | – | – | – | – | decomposed by light | 99.8% | 99.9% | 99.1% | –
p-toluenesulfonate | – | – | – | – | – | decomposed by humidity | 92.3% | 99.3% | 99.8% | –
